Experimental data: ChEMBL document CHEMBL5338704, “Discovery of novel phenylhydrazone-based oxindole-thiolazoles as potent antibacterial agents toward Pseudomonas aeruginosa” (Eur J Med Chem, 2022)
Values after ≈ are worked out from the molar mass of the structure shown. Active and inactive are the calls of the source. The rule behind the calls is not given here.

Experiments:
[1] = test system: Escherichia coli; experiment: Antibacterial activity against Escherichia coli assessed as inhibition of bacterial growth by micro-broth dilution assay; format: functional
[2] = test system: Escherichia coli; experiment: Antibacterial activity against Escherichia coli ATCC 25922 assessed as inhibition of bacterial growth by micro-broth dilution assay; format: functional
[3] = test system: Acinetobacter baumannii; experiment: Antibacterial activity against Acinetobacter baumannii assessed as inhibition of bacterial growth by micro-broth dilution assay; format: functional
[4] = test system: Staphylococcus aureus; experiment: Antibacterial activity against Staphylococcus aureus assessed as inhibition of bacterial growth by micro-broth dilution assay; format: functional
[5] = test system: Staphylococcus aureus; experiment: Antibacterial activity against Staphylococcus aureus ATCC 29213 assessed as inhibition of bacterial growth by micro-broth dilution assay; format: functional
[6] = test system: Staphylococcus aureus; experiment: Antibacterial activity against methicillin resistant Staphylococcus aureus assessed as inhibition of bacterial growth by micro-broth dilution assay; format: functional
[7] = test system: Pseudomonas aeruginosa; experiment: Antibacterial activity against Pseudomonas aeruginosa assessed as inhibition of bacterial growth by micro-broth dilution assay; format: functional
[8] = test system: Pseudomonas aeruginosa; experiment: Antibacterial activity against Pseudomonas aeruginosa ATCC 27853 assessed as inhibition of bacterial growth by micro-broth dilution assay; format: functional
[9] = Hemolytic activity in RBC (unknown origin) assessed as hemolysis; format: toxicity, cell-based, Erythrocyte; conditions: red blood cells (erythrocytes)
[10] = test system: Klebsiella pneumoniae; experiment: Antibacterial activity against Klebsiella pneumoniae assessed as inhibition of bacterial growth by micro-broth dilution assay; format: functional
[11] = test system: Staphylococcus aureus; experiment: Antibacterial activity against Staphylococcus aureus ATCC 25923 assessed as inhibition of bacterial growth by micro-broth dilution assay; format: functional
[12] = test system: Enterococcus faecalis; experiment: Antibacterial activity against Enterococcus faecalis assessed as inhibition of bacterial growth by micro-broth dilution assay; format: functional
[13] = test system: Acinetobacter baumannii; experiment: Potency index, ratio of norfloxacin MIC to test compound MIC for antibacterial activity against Acinetobacter baumannii assessed as inhibition of bacterial growth by micro-broth dilution assay; format: functional
[14] = test system: Pseudomonas aeruginosa; experiment: Antibacterial activity against Pseudomonas aeruginosa ATCC 27853 assessed as inhibition of bacterial growth measured after 6 hrs; format: functional, organism-based
[15] = test system: Pseudomonas aeruginosa; experiment: Antibacterial activity against Pseudomonas aeruginosa ATCC 27853 assessed as inhibition of bacterial growth at 4 times MIC measured upto 14 hrs; format: functional, organism-based

Cc1ccc(N/N=C2\C(=O)N(CC(O)CSc3nc[nH]n3)c3ccccc32)cc1 (stereo not given)
MIC [1]: 32 µg/mL (≈ 78.3 µM)
MIC [2]: 32 µg/mL (≈ 78.3 µM)
MIC [3]: 16 µg/mL (≈ 39.2 µM)
MIC [4]: 32 µg/mL (≈ 78.3 µM)
MIC [5]: 8 µg/mL (≈ 19.6 µM)
MIC [6]: 16 µg/mL (≈ 39.2 µM)
MIC [7]: 64 µg/mL (≈ 157 µM)
MIC [8]: 8 µg/mL (≈ 19.6 µM)
HC50 [9]: 416 µg/mL
MIC [10]: 32 µg/mL (≈ 78.3 µM)
MIC [11]: 4 µg/mL (≈ 9.79 µM)
MIC [12]: 2 µg/mL (≈ 4.9 µM)

Cn1ccnc1SCC(O)CN1C(=O)/C(=N\Nc2ccccc2)c2ccccc21 (stereo not given)
MIC [1]: 128 µg/mL (≈ 314 µM)
MIC [2]: 128 µg/mL (≈ 314 µM)
MIC [3]: 128 µg/mL (≈ 314 µM)
MIC [4]: 128 µg/mL (≈ 314 µM)
MIC [5]: 128 µg/mL (≈ 314 µM)
MIC [6]: 128 µg/mL (≈ 314 µM)
MIC [7]: 256 µg/mL (≈ 628 µM)
MIC [8]: 128 µg/mL (≈ 314 µM)
HC50 [9]: 441 µg/mL
MIC [10]: 128 µg/mL (≈ 314 µM)
MIC [11]: 256 µg/mL (≈ 628 µM)
MIC [12]: 128 µg/mL (≈ 314 µM)

O=C1/C(=N\Nc2ccc([N+](=O)[O-])cc2)c2ccccc2N1CC(O)CSc1nc[nH]n1 (stereo not given)
MIC [1]: 64 µg/mL (≈ 146 µM)
MIC [2]: 128 µg/mL (≈ 291 µM)
MIC [3]: 32 µg/mL (≈ 72.8 µM)
MIC [4]: 32 µg/mL (≈ 72.8 µM)
MIC [5]: 32 µg/mL (≈ 72.8 µM)
MIC [6]: 32 µg/mL (≈ 72.8 µM)
MIC [7]: 32 µg/mL (≈ 72.8 µM)
MIC [8]: 64 µg/mL (≈ 146 µM)
HC50 [9]: > 512 µg/mL
MIC [10]: 64 µg/mL (≈ 146 µM)
MIC [11]: 128 µg/mL (≈ 291 µM)
MIC [12]: 64 µg/mL (≈ 146 µM)

Cn1ccnc1SCC(O)CN1C(=O)/C(=N\Nc2ccc(Cl)cc2)c2ccccc21 (stereo not given)
MIC [1]: 32 µg/mL (≈ 72.4 µM)
MIC [2]: 128 µg/mL (≈ 290 µM)
MIC [3]: 16 µg/mL (≈ 36.2 µM)
MIC [4]: 16 µg/mL (≈ 36.2 µM)
MIC [5]: 64 µg/mL (≈ 145 µM)
MIC [6]: 128 µg/mL (≈ 290 µM)
MIC [7]: 64 µg/mL (≈ 145 µM)
MIC [8]: 32 µg/mL (≈ 72.4 µM)
HC50 [9]: 151 µg/mL
MIC [10]: 2 µg/mL (≈ 4.53 µM)
MIC [11]: 256 µg/mL (≈ 579 µM)
MIC [12]: 4 µg/mL (≈ 9.05 µM)

Cn1nnnc1SCC(O)CN1C(=O)/C(=N\Nc2ccccc2)c2ccccc21 (stereo not given)
MIC [1]: 32 µg/mL (≈ 78.1 µM)
MIC [2]: 16 µg/mL (≈ 39.1 µM)
MIC [3]: 2 µg/mL (≈ 4.88 µM)
MIC [4]: 64 µg/mL (≈ 156 µM)
MIC [5]: 128 µg/mL (≈ 313 µM)
MIC [6]: 16 µg/mL (≈ 39.1 µM)
MIC [7]: 16 µg/mL (≈ 39.1 µM)
MIC [8]: 32 µg/mL (≈ 78.1 µM)
HC50 [9]: 406 µg/mL
MIC [10]: 2 µg/mL (≈ 4.88 µM)
MIC [11]: 128 µg/mL (≈ 313 µM)
MIC [12]: 32 µg/mL (≈ 78.1 µM)
Ratio [13]: 2

O=C1C(=O)N(CC(O)CSc2nc[nH]n2)c2ccccc21 (stereo not given)
MIC [1]: 64 µg/mL (≈ 210 µM)
MIC [2]: 128 µg/mL (≈ 421 µM)
MIC [3]: 64 µg/mL (≈ 210 µM)
MIC [4]: 128 µg/mL (≈ 421 µM)
MIC [5]: 64 µg/mL (≈ 210 µM)
MIC [6]: 64 µg/mL (≈ 210 µM)
MIC [7]: 16 µg/mL (≈ 52.6 µM)
MIC [8]: 128 µg/mL (≈ 421 µM)
HC50 [9]: 285 µg/mL
MIC [10]: 32 µg/mL (≈ 105 µM)
MIC [11]: 32 µg/mL (≈ 105 µM)
MIC [12]: 64 µg/mL (≈ 210 µM)

O=C(O)c1ccc(N/N=C2\C(=O)N(CC(O)CSc3nc[nH]n3)c3ccccc32)cc1 (stereo not given)
MIC [1]: 8 µg/mL (≈ 18.2 µM)
MIC [2]: 32 µg/mL (≈ 73 µM)
MIC [3]: 16 µg/mL (≈ 36.5 µM)
MIC [4]: 64 µg/mL (≈ 146 µM)
MIC [5]: 4 µg/mL (≈ 9.12 µM)
MIC [6]: 4 µg/mL (≈ 9.12 µM)
MIC [7]: 64 µg/mL (≈ 146 µM)
MIC [8]: 16 µg/mL (≈ 36.5 µM)
HC50 [9]: 282 µg/mL
MIC [10]: 2 µg/mL (≈ 4.56 µM)
MIC [11]: 8 µg/mL (≈ 18.2 µM)
MIC [12]: 2 µg/mL (≈ 4.56 µM)

Cn1nnnc1SCC(O)CN1C(=O)C(=O)c2ccccc21 (stereo not given)
MIC [1]: 64 µg/mL (≈ 200 µM)
MIC [2]: 16 µg/mL (≈ 50.1 µM)
MIC [3]: 64 µg/mL (≈ 200 µM)
MIC [4]: 32 µg/mL (≈ 100 µM)
MIC [5]: 64 µg/mL (≈ 200 µM)
MIC [6]: 64 µg/mL (≈ 200 µM)
MIC [7]: 64 µg/mL (≈ 200 µM)
MIC [8]: 32 µg/mL (≈ 100 µM)
HC50 [9]: 335 µg/mL
MIC [10]: 16 µg/mL (≈ 50.1 µM)
MIC [11]: 128 µg/mL (≈ 401 µM)
MIC [12]: 64 µg/mL (≈ 200 µM)

CCn1cc(C(=O)O)c(=O)c2cc(F)c(N3CCNCC3)cc21 [NORFLOXACIN]
MIC [1]: 8 µg/mL (≈ 25.1 µM)
MIC [2]: 2 µg/mL (≈ 6.26 µM)
MIC [3]: 4 µg/mL (≈ 12.5 µM)
MIC [4]: 2 µg/mL (≈ 6.26 µM)
MIC [5]: 2 µg/mL (≈ 6.26 µM)
MIC [6]: 8 µg/mL (≈ 25.1 µM)
MIC [7]: 8 µg/mL (≈ 25.1 µM)
MIC [8]: 4 µg/mL (≈ 12.5 µM)
Activity [14]: Active
MIC [10]: 2 µg/mL (≈ 6.26 µM)
MIC [11]: 4 µg/mL (≈ 12.5 µM)
MIC [12]: 4 µg/mL (≈ 12.5 µM)
Activity [15]: Active
